According to US20250270445A1, “COMPOUNDS AND USES THEREOF IN FIELD OF OPTOELECTRONICS” (Zhejiang Brilliant Optoelectronic Technology Co.,Ltd., priority 2022, published 2025):

Legend:
Assay type in all cases: physicochemical
[1] = Absorption spectrum, emission spectrum and extinction coefficient in toluene solution; settings: for Molar extinction coefficient of the toluene solution: maximum absorption peak
Method: The extinction coefficients of the compounds and their absorption and emission spectrums in the solution were determined as follows: • 1. The compound with a certain amount of substance concentration in the toluene was prepared in a volumetric flask. • 2. The absorption spectrum of the solution was measured by using an ultraviolet-visible spectrophotometer (Puxi T9s) to obtain the absorption peak wavelength. • 3. The absorbance of the maximum absorption peak divided by the amount of substance concentration is the molar extinction coefficient of the compound. • 4. The emission spectrum of the solution was measured by using a fluorescent spectroscope (Hitachi, F-4700 FL Spectrophotometer) to obtain the emission peak wavelength.

[2] = Solubility of compounds in toluene
Method: The solubility of the compounds in the toluene were determined as follows: • 1. 1000 mg of toluene solution was placed in the transparent glass sample bottle. • 2. A certain mass of the compound was added into the toluene, and oscillated until completely dissolved. • 3. After the compound was completely dissolved, a certain mass of the compound was further added into the toluene, and oscillated. • 4. The above steps were repeated until the compound wasn't dissolved any more. • 5. The total mass of the compound added was recorded and the solubility was obtained by calculation.

[3] = Absorption and emission spectrum in spin-coated film; settings: for Absorption peak of the film / Emission peak of the film: spin-coated film
Method: The absorption and emission spectrums of the compounds in the film were determined as follows: • 1. The compound with a certain concentration in the toluene was prepared. • 2. The prepared toluene solution was dropped onto a clean glass substrate. • 3. Spin-coating, and then heating at the 80° C. for 1 min. • 4. The absorption spectrum of the film was measured by using an ultraviolet-visible spectrophotometer (Puxi T9s) to obtain the absorption peak wavelength. • 5. The emission spectrum of the film was measured by using a fluorescent spectroscope (Hitachi, F-4700 FL Spectrophotometer) to obtain the emission peak wavelength.

[4] = UV stability of compounds in toluene (absorbance decay to 80%); settings: 1×10^−5 mol/L in toluene, UV LEDs 365 nm & 255 nm, time to 80% absorbance, normalized to comparative compound 2 as 100%
Method: The compound was dissolved in the toluene with a concentration of 1×10^−5 mol/L. 3 mL solution was added to the cuvette with a lid and the lid was screwed on tightly, then the cuvette was placed in the ultraviolet-visible spectrophotometer to test the absorption spectrum, the absorbance of the maximum absorption peak was recorded as the initial value. The cuvette was placed at a distance of 12 cm from the UV LEDs (365 nm & 255 nm), irradiated for a period and tested its absorption spectrum, then continued to be irradiated after the test, and repeated until the absorbance decayed to 80% of its initial value, the time was recorded as t80.

Structure (SMILES)	Absorption peak of the toluene solution [1]	Emission peak of the toluene solution [1]	Molar extinction coefficient of the toluene solution [1]	Solubilities(/100 g, toluene) [2]	red shift of film spectrum versus solution spectrum ([3]; film versus toluene solution)	Absorption peak of the film [3]	Emission peak of the film [3]	Times t80 [4]
CC(C)(C)c1ccc2c(c1)c1cc(C(C)(C)C)cc3c1n2-c1cccc2c1B3c1cc3c4ccccc4c4ccccc4c3c3c4c5c6ccccc6c6ccccc6c5ccc4n-2c13 [E2]	507 nm	523 nm	4.8 × 10^4 L · mo 1^−1	>0.7 g/100 g toluene				
CC(C)(C)c1ccc2c(c1)c1cc(C(C)(C)C)cc3c1n2-c1cc(-c2c(-c4ccccc4)cc(-c4ccccc4)cc2-c2ccccc2)cc2c1B3c1cc3c4ccccc4c4ccccc4c3c3c4c5c6ccccc6c6ccccc6c5ccc4n-2c13 [E3]	512 nm	530 nm	6.6 × 10^4 L · mo 1^−1	>0.7 g/100 g toluene				
CCCCCCC1(CCCCCC)c2ccccc2-c2ccc(-c3ccccc3-c3ccc4c5cccc6c(-c7ccccc7-c7ccc8c(c7)C(CCCCCC)(CCCCCC)c7ccccc7-8)ccc(c7cccc3c74)c65)cc21 [comparative compound 1, reference compound]	461 nm	485 nm	4.3 × 10^4 L · mo 1^−1		large red shift	464 nm	543 nm	
c1ccc(N(c2ccc(-c3ccc(N(c4ccccc4)c4ccc5c(c4)c4ccccc4n5-c4ccccc4)cc3)cc2)c2ccc3c(c2)c2ccccc2n3-c2ccccc2)cc1 [comparative compound 2, reference compound]								100%
Cc1cccc(C)c1N(c1ccccc1)c1cc(N(c2ccccc2)c2c(C)cccc2C)c2ccc3c(N(c4ccccc4)c4c(C)cccc4C)cc(N(c4ccccc4)c4c(C)cccc4C)c4ccc1c2c43 [compound 1]	475 nm	490 nm	6.0 × 10^4 L · mo 1^−1	1.5 g/100 g toluene		477 nm	497 nm	190%
Cc1cccc(C)c1N(c1ccc(C(C)(C)C)cc1)c1cc(N(c2ccc(C(C)(C)C)cc2)c2c(C)cccc2C)c2ccc3c(N(c4ccc(C(C)(C)C)cc4)c4c(C)cccc4C)cc(N(c4ccc(C(C)(C)C)cc4)c4c(C)cccc4C)c4ccc1c2c43 [compound 3]	477 nm	495 nm	3.0 × 10^4 L · mo 1^−1	4.2 g/100 g toluene		479 nm	497 nm	212%
Cc1cccc(C)c1N(c1cc(C(C)(C)C)cc(C(C)(C)C)c1)c1cc(N(c2cc(C(C)(C)C)cc(C(C)(C)C)c2)c2c(C)cccc2C)c2ccc3c(N(c4cc(C(C)(C)C)cc(C(C)(C)C)c4)c4c(C)cccc4C)cc(N(c4cc(C(C)(C)C)cc(C(C)(C)C)c4)c4c(C)cccc4C)c4ccc1c2c43 [compound 5]	477 nm	497 nm	5.6 × 10^4 L · mo 1^−1	4.6 g/100 g toluene		476 nm	497 nm	304%
CC(C)c1cccc(C(C)C)c1N(c1ccc(C(C)(C)C)cc1)c1cc(N(c2ccc(C(C)(C)C)cc2)c2c(C(C)C)cccc2C(C)C)c2ccc3c(N(c4ccc(C(C)(C)C)cc4)c4c(C(C)C)cccc4C(C)C)cc(N(c4ccc(C(C)(C)C)cc4)c4c(C(C)C)cccc4C(C)C)c4ccc1c2c43 [compound 6]				>20 g/100 g toluene				
CC(C)c1cccc(C(C)C)c1N(c1cc(C(C)(C)C)cc(C(C)(C)C)c1)c1cc(N(c2cc(C(C)(C)C)cc(C(C)(C)C)c2)c2c(C(C)C)cccc2C(C)C)c2ccc3c(N(c4cc(C(C)(C)C)cc(C(C)(C)C)c4)c4c(C(C)C)cccc4C(C)C)cc(N(c4cc(C(C)(C)C)cc(C(C)(C)C)c4)c4c(C(C)C)cccc4C(C)C)c4ccc1c2c43 [compound 7]				>20 g/100 g toluene				
CCc1cccc(CC)c1N(c1ccc(C(C)(C)C)cc1)c1cc(N(c2ccc(C(C)(C)C)cc2)c2c(CC)cccc2CC)c2ccc3c(N(c4ccc(C(C)(C)C)cc4)c4c(CC)cccc4CC)cc(N(c4ccc(C(C)(C)C)cc4)c4c(CC)cccc4CC)c4ccc1c2c43 [compound 9]	482 nm	500 nm	5.3 × 10^4 L · mo 1^−1	25.9 g/100 g toluene		482 nm	499 nm	279%
Cc1cc2ccccc2cc1N(c1ccc(C(C)(C)C)cc1)c1cc(N(c2ccc(C(C)(C)C)cc2)c2cc3ccccc3cc2C)c2ccc3c(N(c4ccc(C(C)(C)C)cc4)c4cc5ccccc5cc4C)cc(N(c4ccc(C(C)(C)C)cc4)c4cc5ccccc5cc4C)c4ccc1c2c43 [compound 10]				>2.5 g/100 g toluene				
Cc1cc2ccccc2c(C)c1N(c1ccc(C(C)(C)C)cc1)c1cc(N(c2ccc(C(C)(C)C)cc2)c2c(C)cc3ccccc3c2C)c2ccc3c(N(c4ccc(C(C)(C)C)cc4)c4c(C)cc5ccccc5c4C)cc(N(c4ccc(C(C)(C)C)cc4)c4c(C)cc5ccccc5c4C)c4ccc1c2c43 [compound 11]				>2 g/100 g toluene				
Cc1cccc(C)c1N(c1ccc(C(F)(F)F)cc1)c1cc(N(c2ccc(C(F)(F)F)cc2)c2c(C)cccc2C)c2ccc3c(N(c4ccc(C(F)(F)F)cc4)c4c(C)cccc4C)cc(N(c4ccc(C(F)(F)F)cc4)c4c(C)cccc4C)c4ccc1c2c43 [compound 12]				>4 g/100 g toluene				
CC(C)c1ccc(-c2cc(-c3cc(C(C)(C)C)cc(C(C)(C)C)c3)ccc2N(c2cc(F)c(F)c(F)c2)c2cc(N(c3cc(F)c(F)c(F)c3)c3ccc(-c4cc(C(C)(C)C)cc(C(C)(C)C)c4)cc3-c3ccc(C(C)C)cc3)c3ccc4c(N(c5cc(F)c(F)c(F)c5)c5ccc(-c6cc(C(C)(C)C)cc(C(C)(C)C)c6)cc5-c5ccc(C(C)C)cc5)cc(N(c5cc(F)c(F)c(F)c5)c5ccc(-c6cc(C(C)(C)C)cc(C(C)(C)C)c6)cc5-c5ccc(C(C)C)cc5)c5ccc2c3c54)cc1 [compound 14]	475 nm	494 nm	5.1 × 10^4 L · mo 1^−1	>5 g/100 g toluene		471 nm	493 nm	
CCCCCCCCc1ccc(-c2c(N(c3cc(F)c(F)c(F)c3)c3cc(N(c4cc(F)c(F)c(F)c4)c4ccc5ccccc5c4-c4ccc(CCCCCCCC)cc4)c4ccc5c(N(c6cc(F)c(F)c(F)c6)c6ccc7ccccc7c6-c6ccc(CCCCCCCC)cc6)cc(N(c6cc(F)c(F)c(F)c6)c6ccc7ccccc7c6-c6ccc(CCCCCCCC)cc6)c6ccc3c4c65)ccc3ccccc23)cc1 [compound 17]	475 nm	494 nm	5.8 × 10^4 L · mo 1^−1	>4 g/100 g toluene		476 nm	497 nm	
CCCCCCCCc1ccc(-c2cc(N(c3ccc(C(C)(C)C)cc3)c3ccc(C(C)(C)C)cc3)ccc2N(c2cc(F)c(F)c(F)c2)c2cc(N(c3cc(F)c(F)c(F)c3)c3ccc(N(c4ccc(C(C)(C)C)cc4)c4ccc(C(C)(C)C)cc4)cc3-c3ccc(CCCCCCCC)cc3)c3ccc4c(N(c5cc(F)c(F)c(F)c5)c5ccc(N(c6ccc(C(C)(C)C)cc6)c6ccc(C(C)(C)C)cc6)cc5-c5ccc(CCCCCCCC)cc5)cc(N(c5cc(F)c(F)c(F)c5)c5ccc(N(c6ccc(C(C)(C)C)cc6)c6ccc(C(C)(C)C)cc6)cc5-c5ccc(CCCCCCCC)cc5)c5ccc2c3c54)cc1 [compound 18]	492 nm	520 nm	5.1 × 10^4 L · mo 1^−1	>10 g/100 g toluene		487 nm	518 nm	
CC(C)c1ccc(N(c2cc(F)c(F)c(F)c2)c2cc(N(c3cc(F)c(F)c(F)c3)c3ccc(C(C)C)cc3/C=C/c3ccc(C(C)(C)C)cc3)c3ccc4c(N(c5cc(F)c(F)c(F)c5)c5ccc(C(C)C)cc5/C=C/c5ccc(C(C)(C)C)cc5)cc(N(c5cc(F)c(F)c(F)c5)c5ccc(C(C)C)cc5/C=C/c5ccc(C(C)(C)C)cc5)c5ccc2c3c54)c(/C=C/c2ccc(C(C)(C)C)cc2)c1 [compound 19]				>5 g/100 g toluene				
